Measured values reported in article PMC6758725, “Novel 4-arylaminoquinazolines bearing N,N-diethyl(aminoethyl)amino moiety with antitumour activity as EGFR^wt-TK inhibitor” (Journal of Enzyme Inhibition and Medicinal Chemistry, 2019).
Where two headings read alike, the source gives them in different places.

What was measured:
A549 cells [1] = assay: MTT antiproliferative assay, A549 cells; assay type: cell-based; conditions: Homo sapiens, read-out: IC50 (µM) A549
Experimental: (§1) Methyl thiazolyl tetrazolium (MTT) colorimetric assay (MTT assay)[17]^,[20] was used to evaluated the antiproliferative activities of these novel compounds against four human tumour cell lines including SW480, A549, A431 and NCI-H1975.
(§2) Figure 2. […] (A) SW480 cells, (B) A549 cells, (C) A431 cells, (D) NCI-H1975 cells. […] All error bars were represented in mean ± SE.
(§3) The effect of compounds on cell proliferation was determined using the MTT (3–(4,5-dimethylthiazol-2-yl)-2,5-diphenyltetrazolium bromide) method, which was carried out as previously described[12]^,[16].

NCI-H1975 cells = assay: MTT antiproliferative assay, NCI-H1975 cells; assay type: cell-based; conditions: Homo sapiens, read-out: IC50 (µM) NCI-H1975
Experimental: as §1, §2, §3

A431 cells = assay: MTT antiproliferative assay, A431 cells; assay type: cell-based; conditions: Homo sapiens, read-out: IC50 (µM) A431
Experimental: as §1, §2, §3

SW480 cells = assay: MTT antiproliferative assay, SW480 cells; assay type: cell-based; conditions: Homo sapiens, read-out: IC50 (µM) SW480
Experimental: as §1, §2, §3

A549 cells [2] = assay: Cell cycle analysis (PI, flow cytometry); assay type: cell-based, human; conditions: 48 h; for percentage of cells in G0/G1 phase: untreated 51.97%
Text: Figure 5. Effect of compound 6a on the cell cycle phase distribution in A549 cells. (A) Representative profiles were obtained by FACS, (B) histograms of percentages of percentages of cell populations in the G0/G1, S and G2/M phase in each group from (A) analysed by GraphPad Prism5. […] Percentage of cells in G0/G1, S and G2/M phases were indicated. All values were expressed as mean ± SE. *p < .05, **p < .01 and ***p < .001 indicate significant differences compared with the control at the same phase.
Following treatment with different concentrations of compound 6a, the distribution of cell cycle was measured using cell cycle detection kit (KeyGEN BioTECH, Nanjing, China), according to the manufacturer’s instructions. The cell cycle of the treated cells was then detected by flow cytometry using ACEA NovoCyte.

[3] = target: wild type epidermal growth factor receptor tyrosine kinase (EGFR^wt-TK) (Homo sapiens, UniProt P00533); assay: In vitro EGFR^wt tyrosine kinase ELISA assay
A549 cells [4] = assay: Cell apoptosis analysis (Annexin V-FITC/PI, FACS); assay type: cell-based, human; conditions: for numbers of late apoptotic cells compared with control groups / numbers of necrosis cells compared with control groups: 48 h
Experimental: The process of controlled cellular death known as apoptosis has an important central role not only in normal homeostatic maintenance of tissues, but also in numerous diseases such as cancer, neurodegenerative, autoimmune, and cardiovascular diseases. After treatment by compound 6a for 48 h, the apoptosis of A549 cells were measured by fluorescence-activated cell sorter (FACS) analysis with annexin V-fluorescein isothiocyanate (FITC) and propidium iodide (PI) labelling.
Figure 4. Effect of compound 6a on cell apoptosis in A549 cells. (A) Representative density plots were obtained by FACS, (B) histograms of percentages of apoptotic cells in each group from (A) analysed by GraphPad Prism5.
Following treatment with different concentrations of compound 6a, the apoptosis of A549 cells was measured using Annexin V-FITC/PI apoptosis detection kit (KeyGEN BioTECH, Nanjing, China), according to the manufacturer’s instructions. Apoptosis of the treated cells was then detected by flow cytometry using ACEA NovoCyte.

[5] = A549, MTT, 72 h of treatment, mean ± SD of at least three independent experiments
[6] = NCI-H1975, MTT, 72 h of treatment, mean ± SD of at least three independent experiments
[7] = A-431, MTT, 72 h of treatment, mean ± SD of at least three independent experiments
[8] = SW480, MTT, 72 h of treatment, mean ± SD of at least three independent experiments

wild type epidermal growth factor receptor tyrosine kinase (EGFR^wt-TK), sequence (P00533 25-1210): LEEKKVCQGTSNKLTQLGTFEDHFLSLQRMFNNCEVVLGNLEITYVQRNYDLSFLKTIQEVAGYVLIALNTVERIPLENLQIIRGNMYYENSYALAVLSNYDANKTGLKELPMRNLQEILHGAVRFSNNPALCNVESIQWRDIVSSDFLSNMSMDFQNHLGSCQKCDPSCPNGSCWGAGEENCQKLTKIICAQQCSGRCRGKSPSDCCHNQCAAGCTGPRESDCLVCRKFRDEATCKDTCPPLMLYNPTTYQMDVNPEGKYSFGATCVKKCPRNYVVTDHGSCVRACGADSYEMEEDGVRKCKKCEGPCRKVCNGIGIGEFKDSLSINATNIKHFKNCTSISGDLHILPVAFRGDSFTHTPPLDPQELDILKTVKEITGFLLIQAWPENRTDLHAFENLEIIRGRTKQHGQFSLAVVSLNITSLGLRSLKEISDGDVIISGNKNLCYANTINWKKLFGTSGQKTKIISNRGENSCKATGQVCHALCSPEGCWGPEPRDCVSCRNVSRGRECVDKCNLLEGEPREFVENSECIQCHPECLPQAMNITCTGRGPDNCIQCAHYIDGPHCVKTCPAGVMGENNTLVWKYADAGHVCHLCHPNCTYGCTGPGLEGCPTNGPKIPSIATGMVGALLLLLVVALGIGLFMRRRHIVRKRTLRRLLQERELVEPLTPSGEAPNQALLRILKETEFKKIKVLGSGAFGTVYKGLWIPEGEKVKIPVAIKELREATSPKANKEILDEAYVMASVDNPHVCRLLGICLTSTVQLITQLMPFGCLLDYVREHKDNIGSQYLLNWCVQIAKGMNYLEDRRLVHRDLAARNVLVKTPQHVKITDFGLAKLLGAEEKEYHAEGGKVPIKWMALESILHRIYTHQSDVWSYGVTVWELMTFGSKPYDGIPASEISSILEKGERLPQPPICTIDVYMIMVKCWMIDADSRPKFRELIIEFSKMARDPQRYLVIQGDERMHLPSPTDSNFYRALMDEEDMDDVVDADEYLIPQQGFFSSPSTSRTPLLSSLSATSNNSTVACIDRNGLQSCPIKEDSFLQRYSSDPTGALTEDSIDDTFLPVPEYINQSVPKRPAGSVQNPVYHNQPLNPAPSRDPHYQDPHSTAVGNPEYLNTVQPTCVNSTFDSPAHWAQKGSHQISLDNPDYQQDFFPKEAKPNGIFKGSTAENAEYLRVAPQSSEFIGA

Compound	IC50 (A549 cells [1]; [5]) [µM]	melting point [°C]	IC50 (NCI-H1975 cells; [6]) [µM]	IC50 (A431 cells; [7]) [µM]	IC50 (SW480 cells; [8]) [µM]	numbers of late apoptotic cells compared with control groups (A549 cells [4]; A549, 20 µM)	numbers of necrosis cells compared with control groups (A549 cells [4]; A549, 20 µM)	other results
CCN(CC)CCNCc1ccc(-c2ccc3ncnc(Nc4ccc(OCc5cccc(F)c5)c(Cl)c4)c3c2)o1 [Compound 6a, 4–(3-chloro-4-(3-fluorobenzyloxy)phenylamino)-6–(5-((N,N-diethyl(aminoethyl))aminomethyl)furan-2-yl)quinazoline]	5.46 ± 0.19		9.79 ± 0.07	2.21 ± 0.25	6.67 ± 0.95	significantly higher	significantly higher	percentage of cells in G0/G1 phase (A549 cells [2]; A549, 2.5 µM, PI): 54.15%; percentage of cells in G0/G1 phase (A549 cells [2]; A549, 5 µM, PI): 55.44%; percentage of cells in G0/G1 phase (A549 cells [2]; A549, 10 µM, PI): 51.77%; percentage of cells in G0/G1 phase (A549 cells [2]; A549, 20 µM, PI): 62.45%; effect on cell cycle of A549 cells (A549 cells [2]; A549, 20, 10, 5 and 2.5 µM): arrested in the G0/G1 phase; IC50 [3]: 0.0156 µM; numbers of late apoptotic cells compared with control groups (A549 cells [4]; A549, 10 µM): significantly higher; early apoptosis of A549 cells (A549 cells [4]; A549, 48 h, tested concentrations 20-2.5 µM, versus control): not significantly influenced
C#Cc1cccc(Nc2ncnc3ccc(-c4ccc(CNCCN(CC)CC)o4)cc23)c1 [Compound 6c, 4–(3-ethynylphenylamino)-6-(5-((N,N-diethyl(aminoethyl))aminomethyl)furan-2-yl)quinazoline]	12.1 ± 0.37	81.4 to 82.3	15.6 ± 1.41	2.59 ± 0.15	10.8 ± 1.34			
CS(=O)(=O)CCNCc1ccc(-c2ccc3ncnc(Nc4ccc(OCc5cccc(F)c5)c(Cl)c4)c3c2)o1 [Lapatinib, reference compound]						significantly higher	significantly higher	IC50 (A549 cells [1]; A549, 72 h): 14.9 ± 1.21 µM; percentage of cells in G2/M phase (A549 cells [2]; A549, 20 µM, PI): 19.41%; percentage of cells in S phase (A549 cells [2]; A549, 20 µM, PI): 19.93%; IC50 (NCI-H1975 cells; NCI-H1975, 72 h): 12.7 ± 0.73 µM; IC50 (A431 cells; A-431, 72 h): 4.8 ± 0.71 µM; IC50 (SW480 cells; SW480, 72 h): 12.6 ± 1.35 µM

More lines, main results first:

IC50 (A549 cells [1]; [5]) [µM]	melting point [°C]	IC50 (NCI-H1975 cells; [6]) [µM]	IC50 (A431 cells; [7]) [µM]	IC50 (SW480 cells; [8]) [µM]	Compound	numbers of late apoptotic cells compared with control groups (A549 cells [4]; A549, 20 µM)	numbers of necrosis cells compared with control groups (A549 cells [4]; A549, 20 µM)	other results
18 ± 0.62	98.3 to 99.8	17.55 ± 0.03	3.92 ± 1.1	14.9 ± 2.43	CCN(CC)CCNCc1ccc(-c2ccc3ncnc(Nc4ccc(F)c(Cl)c4)c3c2)o1 [Compound 6b, 4–(3-chloro-4-fluorophenylamino)-6-(5-((N,N-diethyl(aminoethyl))aminomethyl)furan-2-yl)quinazoline]			
4.1 ± 0.66	89.9 to 91.3	5.13 ± 0.55	2.09 ± 1.01	4.21 ± 1.16	C/C=C/c1ccc(Nc2ncnc3ccc(-c4ccc(CNCCN(CC)CC)o4)cc23)cc1 [Compound 6d, 6-(5-((N,N-diethylethyl)aminomethyl)furan-2-yl)-4–(4-(E)-(propen-1-yl)phenylamino)quinazoline]			
